Measured values taken from the METLIN SMRT retention time set (Domingo-Almenara et al. 2019).

Experiment: gradient 5% acetonitrile 3 min, to 50% in 2 min, to 85% in 15 min, held 3 min, 100 µL/min
Details: column: Zorbax Extend-C18 2.1 x 50 mm; eluents: water / acetonitrile, 0.1% formic acid
Procedure, shortened: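 Pure standards were run in mixtures of ~100 molecules by HPLC coupled to a quadrupole time-of-flight mass spectrometer. The column was a Zorbax Extend-C18 (2.1 × 50 mm, 1.8 μm) at 100 μL/min, with water and acetonitrile each containing 0.1% formic acid, in positive and negative ionization mode. Dead and dwell volumes were 40 μL and 900 μL. Retention time was taken from computationally picked adduct peaks, each manually inspected, with data collected over 3 months.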

Row | Structure (SMILES) | RP-LC retention time [s]
1 | Cc1c(-c2ccc(-c3ccccc3F)cc2)nc2ccc(F)cc2c1C(=O)O | 967
2 | Cc1nnc(-c2ccc3ccn(CC(=O)Nc4cccc(CN5CCCC5)c4)c3c2)o1 | 610
3 | COc1cc(-n2c(=S)[nH]c3ccccc3c2=O)c(Cl)cc1Cl | 923
4 | O=C1CC(c2noc(-c3cc(F)ccc3F)n2)CN1c1ccc(F)cc1 (centres undefined) | 944
5 | CC(C)(C)c1csc(-c2csc(S(=O)(=O)NCc3ccc(Br)cc3)c2)n1 | 1300
6 | Cc1cc(C)cc(C(=O)N2CCC(n3c(-c4ccco4)nc4cccnc43)C2)c1 (centres undefined) | 825
7 | O=C(NCc1ccc(F)cc1)C1(CCO)CCN(c2ncccn2)C1 (centres undefined) | 609
8 | CCOC(=O)c1sc(NC(=O)c2cc(C)n(C)n2)nc1-c1ccccc1 | 928
9 | CCN1CCN(S(=O)(=O)c2c(C)nn(-c3ccc(-c4ccc(C)cc4)nn3)c2C)CC1 | 708
10 | CCSc1nnc(NC(=O)c2ccc(OC)c([N+](=O)[O-])c2)s1 | 802
11 | OC(c1ccccc1)(c1ccccc1)c1nccn1-c1ccccc1 | 754
12 | Cc1ccc(S(=O)(=O)N2CCC(n3cnnc3-c3ccccc3)CC2)cc1C | 859
13 | COC(=O)c1[nH]c(C)c(C(=O)C(C)N(CC2CCCCC2)C(=O)c2ccc(OC)cc2)c1C (centres undefined) | 708
14 | Cc1oc(-c2cccc(Cl)c2)nc1COc1cc(C)c2c(C)nn(C)c2n1 | 1340
15 | COc1cccc(NC(=O)N2CCC(CC(=O)N3CCCCC3)CC2)c1 | 718
16 | CN(Cc1ccccc1)C(=O)c1ccc(CN2CCN(C3CCCC3)C(=O)C2=O)cc1 | 763
17 | CC(C)NC(=O)CN1CCN(c2ncc(C(=O)NCc3ccccc3)c(N)n2)CC1 | 593
18 | O=c1c2sccc2n(Cc2nc(-c3ccc(C(F)(F)F)cc3)no2)c(=O)n1-c1ccc(F)cc1 | 1080
19 | COCCN(Cc1ccc(F)cc1)Cc1cc(=O)c2cc(F)ccc2[nH]1 | 815
20 | CC(C)n1cc(S(=O)(=O)NCc2cccc(Cl)c2)c2cccnc21 | 928
21 | CCN(C(=O)C1C(=O)NC2(C)CC1c1ccccc1O2)c1ccccc1 (centres undefined) | 820
22 | Cc1ccc(NC(=O)c2cc(C)n3nccc3n2)cc1C | 1030
23 | O=C1NCCCn2cc(S(=O)(=O)Nc3ccc(F)c(Cl)c3)cc21 | 686

Row | Structure (SMILES) | RP-LC retention time [s]
24 | CC(C)(C)c1ccc(C(=O)Nc2ccc3c(c2)C(=O)NC3=O)cc1 | 853
25 | O=C(NCCC1=CCCCC1)c1nc(Nc2ccc(F)cc2)c2ccccc2n1 | 962
26 | CC(C)NC(=O)c1ccnn1C | 604
27 | CCC(=O)N1CCc2cc(-c3ccc(C(=O)N4CCN(c5ncccn5)CC4)cc3)ccc21 | 855
28 | O=C(Nc1ccc2c(N3CCCCC3)ncnc2c1)c1cncc(Br)c1 | 664
29 | COc1ccc(C2(C(=O)N3CCC(c4ncc(C)n4C(C)C)C3)CC2)cc1 (centres undefined) | 530
30 | CCc1ccc(NC(=O)N2CCN(c3cc(C)nc(N4CCOCC4)n3)CC2)cc1 | 668
31 | Cc1cccc(C(=O)N2CCc3cc(CNC(=O)c4cc(-c5cccs5)[nH]n4)ccc32)c1 | 895
32 | COc1ccc(C(=O)c2cnc3ccc(OC)cc3c2N2CCOCC2)cc1 | 677
33 | O=S(=O)(NCCOc1cc(N2CCCC2)ncn1)c1ccc(Cl)s1 | 664
34 | CCOC(=O)c1c(C)[nH]c(C(=O)N2CCC(C(C)C(=O)N3CCOCC3)CC2)c1C (centres undefined) | 681
35 | Cc1ccoc1C(=O)N[C@@H]1CN(c2ncccn2)C[C@H]1CO | 588
36 | Cc1ccc(NC(=O)C2CCN(S(=O)(=O)c3cc(C(=O)N4CCCC4)cs3)CC2)cc1Cl | 916
37 | CCOC(=O)c1ccc(NC(=O)CN2N=NC3C(=O)N(c4ccc(F)cc4)C(=O)C32)cc1 (centres undefined) | 812
38 | CN(CCc1noc(COc2ccccc2F)n1)C(=O)Nc1ccc(F)c(Cl)c1 | 966
39 | COC(=O)CNC(=O)NCCc1noc(C2CC2)n1 | 598
40 | CC(=O)Nc1ccc(Br)cc1 | 680
41 | Cc1nnc2cc(N3CCN(S(=O)(=O)c4ccc(C(C)(C)C)cc4)CC3)cnn12 | 824
42 | COc1cc(NC(=O)c2csc(-c3ccc(C)n3C)n2)cc(OC)c1 | 1130
43 | COc1cc(OC)c(NC(=O)NCC2(N3CCOCC3)CCOC2)cc1Cl (centres undefined) | 612
44 | Cn1c(=O)c(SCC(=O)NC2CCN(Cc3ccccc3)CC2)nc2ccccc21 | 624
45 | N#CC(c1ccc(Cl)cc1)c1c(Cl)cc(N2NCC(=O)NC2=O)cc1Cl (centres undefined) | 1020

Results, then the molecule that gave them:

Row | RP-LC retention time [s] | Structure (SMILES)
46 | 919 | CCOc1ccc2ncc(S(=O)(=O)c3ccc(OC)cc3)c(N3CCOCC3)c2c1
47 | 1010 | CCc1ccc(OCC(=O)Nc2nnc(SCc3nnc(-c4ccccc4)o3)s2)cc1
48 | 860 | CCCN1C(=O)CCc2cc(NS(=O)(=O)c3ccccc3C(F)(F)F)ccc21
49 | 884 | Cc1cccc(CNC(=O)c2cc3n(n2)CC(C)(C(=O)NC2CCCCC2)N(C)C3=O)c1 (centres undefined)
50 | 880 | CCn1c(=O)n(Cc2ccccn2)c(=O)c2cnc(-c3ccc(OC)cc3)nc21
51 | 675 | O=C(NC1CCS(=O)(=O)C1)c1ccc(C(=O)c2ccccc2)cc1 (centres undefined)
52 | 624 | Cc1cc(C)c2c(N3CCSCC3)nc(C(=O)NCC3CCCO3)nc2n1 (centres undefined)
53 | 623 | O=C(Nc1cccnc1N1CCOCC1)C1CCC1
54 | 792 | CCc1nc2onc(C)c2c(=O)n1CC(=O)NCc1ccccc1F
55 | 587 | Cc1cc(CC(=O)N2CCCn3ccnc3C2C2CCCC2)on1 (centres undefined)
56 | 957 | COc1ccc(NC(=O)C2CCN(S(C)(=O)=O)c3cc(C)ccc3O2)cc1Cl (centres undefined)
57 | 631 | COc1ccc(NC(=O)CN2CCc3[nH]c4c(C)cc(F)cc4c(=O)c3C2)c(OC)c1
58 | 816 | Cc1noc(C)c1S(=O)(=O)N1CCC(CC(=O)NCCc2c[nH]c3ccccc23)CC1
59 | 1380 | Cc1ccc(C)c(N2CCN(c3ncc(S(=O)(=O)c4ccc(Cl)cc4)c(N)n3)CC2)c1
60 | 906 | CCc1nnc(-c2ccc(S(=O)(=O)N3CCCC(C)C3)o2)o1 (centres undefined)
61 | 791 | CS(=O)(=O)c1ccc(C(=O)Nc2cccc(Cl)c2Cl)cc1
62 | 913 | O=C(c1ccc(F)c(Cl)c1)N1CCCC(c2nnc(-c3ccccc3)o2)C1 (centres undefined)
63 | 997 | COc1ccc(NC(=O)Cn2nc(N3CCCC(C)C3)c3ccccc3c2=O)cc1OC (centres undefined)
64 | 982 | CCOc1ccc(C(=O)N2CCCC2c2nc(-c3ccc(OC)cc3)no2)cc1OCC (centres undefined)
65 | 794 | O=C([C@@H]1C[C@H](F)CN1S(=O)(=O)c1cc(F)ccc1F)N1CCCCC1
66 | 681 | COc1ccc(N2CCN(c3nc4ccccc4cc3-c3noc(C)n3)CC2)cc1
67 | 1070 | CSc1nsc(SCC(=O)Nc2nc(-c3ccccc3)cs2)n1

Row | RP-LC retention time [s] | Structure (SMILES)
68 | 893 | O=C1CCCCC(Cc2ccccc2)(C(=O)NCc2cccc(C(F)(F)F)c2)N1 (centres undefined)
69 | 642 | COc1cc(NC(=O)CCc2c(-c3ccc(Cl)cc3)nc3ccccn23)cc(OC)c1OC
70 | 619 | CCn1ccc(C(=O)NC2CC2)n1
71 | 755 | O=C(N1CCC(Cc2nc(-c3ccccc3)n[nH]2)C1)C1(c2ccccc2)CC1 (centres undefined)
72 | 881 | Cc1ccc(S(=O)(=O)NCC(=O)Oc2ccccc2C)cc1
73 | 901 | Cc1ccccc1Nc1c(-c2cccc(Cl)c2)nc2ncccn12
74 | 825 | Cc1ccc(CN2C(=O)NC3(CCN(C(=O)c4sccc4C)CC3)C2=O)cc1
75 | 643 | Nc1ncnc(NCc2ccco2)c1[N+](=O)[O-]
76 | 914 | O=C(NCc1csc(-c2ccccc2)n1)C1CCN(S(=O)(=O)c2ccccc2F)CC1
77 | 717 | Cc1ccc(-n2nc3c(=O)n(CCCC(=O)NC4CC4)nc(C)c3c2C)cc1
78 | 710 | Cc1nnc(-c2nnc(NCCC(C)C)c3ccccc23)o1
79 | 887 | COCCCNC(=O)Cn1nc(C)c2nn(-c3ccc(Cl)cc3)c(-n3cccc3)c2c1=O
80 | 647 | CC(=O)N1CCc2cc(-c3ccc(C(=O)N4CCN(Cc5ccc6c(c5)OCO6)CC4)cc3)ccc21
81 | 1150 | Cc1ccc(S(=O)(=O)N2CCc3nc(-c4ccc(Cl)cc4)ncc3C2)cc1
82 | 638 | CC(C)OC(=O)c1ncoc1-c1ccccc1C(=O)N1CCN(C2CCCCC2)CC1
83 | 637 | CCC(=O)N1CCc2cc(C(=O)N3CCOCC3)ccc21
84 | 860 | Cn1c(=O)c(N2CCN(C(=O)c3cc(F)cc(F)c3)CC2)nc2cccnc21
85 | 893 | Cc1ccc(C)c(CSc2nnc3c(S(=O)(=O)N4CCCC4)cccn23)c1
86 | 622 | CC(C)NC(=O)CCc1c(-c2ccc(Cl)cc2)nc2ccccn12
87 | 784 | Cn1ncc2c3ccccc3n(CC(=O)N3CCN(c4ccccc4)CC3)c2c1=O
88 | 592 | CCCNc1cc(N2CCCC(CCC(=O)NCCOC)C2)ncn1 (centres undefined)
89 | 867 | Cn1nc(-c2nc(Cc3ccccc3)no2)c2c1CCN(C(=O)NC1CCCC1)C2
